Reference: PubChem BioAssay AID588390 (Sanford-Burnham Center for Chemical Genomics, 2011)
Calls of active or inactive are those of the source. The rule behind the calls is not given here.

Target: Ubiquitin-conjugating enzyme E2 N (Homo sapiens) (UniProt P61088)
Experiment: potency of analogues against UBC13 chain formation – biochemical, TR-FRET, set 2, SAR follow-up (AID 588390)
Details: UBC13 polyubiquitination

Ubiquitin-conjugating enzyme E2 N (Homo sapiens), sequence (P61088 whole entry, looked up): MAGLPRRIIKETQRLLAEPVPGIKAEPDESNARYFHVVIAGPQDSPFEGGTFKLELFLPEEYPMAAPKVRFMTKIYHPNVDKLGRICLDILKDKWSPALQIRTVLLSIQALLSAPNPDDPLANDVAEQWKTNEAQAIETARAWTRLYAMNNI

IC50	Compound
> 100 µM (inactive)	O=C(c1ccco1)N1CCN(C(=O)C2CCN(c3ncnc4c3nc3n4CCCCC3)CC2)CC1
9.81 µM	Cc1ccc(C)c(N2CCN(CCCNC(=O)C3CCCN(c4ncnc5c4nc4n5CCCCC4)C3)CC2)c1 (configuration not stated)
> 100 µM (inactive)	O=C(C1CCN(c2ncnc3c2nc2n3CCCCC2)CC1)N1CCN(c2ncccn2)CC1
0.63 µM	CC1(C)Cc2c(sc(NC(=O)C(=O)NCC3CCCO3)c2C(N)=O)CO1 (configuration not stated)
0.58 µM	CC1(C)Cc2c(sc(NC(=O)C(=O)N3CCCC3)c2C(N)=O)CO1
inactive	Cc1cccc(N2CCN(CCCNC(=O)C3CCCN(c4ncnc5c4nc4n5CCCCC4)C3)CC2C)c1 (configuration not stated)
inactive	O=C(C1CCN(c2ncnc3c2nc2n3CCCCC2)CC1)N1CCN(c2ccccn2)CC1
2.75 µM	O=C(C1CCN(c2ncnc3c2nc2n3CCCCC2)CC1)N1CCN(Cc2ccccc2)CC1
inactive	CC1(C)Cc2c(sc(NC(=O)C(=O)NCC3CCCO3)c2C(=O)O)CO1 (configuration not stated)
1.34 µM	CC1(C)Cc2c(sc(NC(=O)C(=O)NCCN3CCOCC3)c2C(N)=O)CO1
4.25 µM	COC(=O)c1c(NC(=O)C(=O)NCC2CCCO2)sc2c1CC(C)(C)OC2 (configuration not stated)

The next lines start with the molecule.

Compound	IC50
O=C(NCCCN1CCN(c2ccc(F)cc2)CC1)C1CCCN(c2ncnc3c2nc2n3CCCCC2)C1 (configuration not stated)	2.91 µM
CCOc1ccc(NC(=O)CN2CCC(n3cnc4cc(F)ccc43)CC2)cc1	> 100 µM (inactive)
COc1ccc(OC)c(NC(=O)CN2CCC(n3cnc4cc(F)ccc43)CC2)c1	inactive
O=C(CN1CCC(n2cnc3cc(F)ccc32)CC1)Nc1ccccc1Br	inactive
COc1ccc(OC)c(NC(=O)CN2CCC(n3c(C)nc4cc(F)ccc43)CC2)c1	inactive
Cc1nc2cc(F)ccc2n1C1CCN(CC(=O)Nc2ccccc2)CC1	> 100 µM (inactive)
COc1ccccc1N1CCN(CCCNC(=O)C2CCCN(c3ncnc4c3nc3n4CCCCC3)C2)CC1 (configuration not stated)	inactive
Cc1cccc(NC(=O)CN2CCC(n3cnc4cc(F)ccc43)CC2)c1C	> 100 µM (inactive)
Cc1nc2ccccc2n1C1CCN(CC(=O)Nc2ccccc2Oc2ccccc2)CC1	> 100 µM (inactive)
COc1ccc(NC(=O)CN2CCC(n3c(C)nc4cc(F)ccc43)CC2)c(OC)c1	> 100 µM (inactive)
O=C(CN1CCC(n2cnc3cc(F)ccc32)CC1)Nc1cccc(C(F)(F)F)c1	> 100 µM (inactive)
O=C(CN1CCC(n2c(C(F)(F)F)nc3cc(F)ccc32)CC1)Nc1ccc2c(c1)OCO2	> 100 µM (inactive)
CCOc1ccccc1NC(=O)CN1CCC(n2cnc3cc(F)ccc32)CC1	4 µM
O=C(CN1CCC(n2cnc3cc(C(F)(F)F)ccc32)CC1)Nc1ccc2c(c1)OCCO2	> 100 µM (inactive)
O=C(C1CCN(c2ncnc3c2nc2n3CCCCC2)CC1)N1CCN(c2ccc(F)cc2)CC1	inactive
O=C(NCCCN1CCN(c2ccccc2)CC1)C1CCCN(c2ncnc3c2nc2n3CCCCC2)C1 (configuration not stated)	3.3 µM
